Target: MAPK14 (human) (UniProt Q16539)
Assay: Inhibition of MAPK14 Kinase Activity

MAPK14 (human), sequence (Q16539 whole entry, looked up): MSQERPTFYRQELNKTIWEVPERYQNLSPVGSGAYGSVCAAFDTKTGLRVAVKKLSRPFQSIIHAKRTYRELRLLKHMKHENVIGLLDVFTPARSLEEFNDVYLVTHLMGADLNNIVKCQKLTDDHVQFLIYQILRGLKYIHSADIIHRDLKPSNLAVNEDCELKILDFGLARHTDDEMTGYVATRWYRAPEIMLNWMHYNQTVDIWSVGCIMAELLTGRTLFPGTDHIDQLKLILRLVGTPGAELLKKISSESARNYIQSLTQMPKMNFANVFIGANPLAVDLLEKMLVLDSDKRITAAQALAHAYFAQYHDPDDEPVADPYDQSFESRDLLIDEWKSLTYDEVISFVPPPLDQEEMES

IC50, ≤ 10 µM:
O=C1CCC(Cc2ccc(Cl)cc2Cl)CN1C1C(Cl)CCCC1Cl (stereo not given)
O=C1OCC(Cc2ccc(Cl)cc2Cl)CN1c1c(Cl)cccc1Cl (stereo not given)
O=C1CCC(Cc2ccc(F)cc2F)CN1c1c(Cl)cc(NCCn2ccnc2)cc1Cl (stereo not given)
C[C@H]1C[C@@H](Cc2ccc(F)cc2F)CN(c2c(Cl)cccc2Cl)C1=O
O=C1NCC(Cc2cc(F)cc(F)c2)CN1c1c(Cl)cccc1Cl (stereo not given)
Cc1ccc(CC2CCC(=O)N(c3c(Cl)csc3Cl)C2)c(C)c1 (stereo not given)
Cc1nc(CNc2cc(Cl)c(N3CC(Cc4ccc(F)cc4F)CCC3=O)c(Cl)c2)c[nH]1 (stereo not given)
O=C1CSC(Cc2cccc3ccccc23)CN1c1c(Cl)cccc1Cl (stereo not given)
C[C@@H]1C[C@H](Cc2ccc(F)cc2F)CN(c2c(Cl)cc(NCCN(C)C)cc2Cl)C1=O
CC(O)(c1ccc(F)cc1F)C1CCC(=O)N(c2c(Cl)cccc2Cl)C1 (stereo not given)
CN1CCN(Cc2cc(Cl)c(N3CC(Cc4ccc(F)cc4F)CCC3=O)c(Cl)c2)CC1 (stereo not given)
CC(c1ccc(F)cc1F)C1CCC(=O)N(c2c(Cl)cccc2Cl)C1 (stereo not given)
Nc1sc(Cl)c(N2CC(Sc3ccc(F)cc3F)CCC2=O)c1Cl (stereo not given)
Cc1ccccc1SC1CCC(=O)N(c2c(Cl)cccc2Cl)C1 (stereo not given)
Cc1cc(C)cc(CC2CN(c3c(Cl)cccc3Cl)C(=O)CS2)c1 (stereo not given)
O=C1CCC(Cc2ccccc2)CN1c1c(Cl)cc([N+](=O)[O-])cc1Cl (stereo not given)
O=C1CCC(Sc2cc(Cl)cc(Cl)c2)CN1c1c(Cl)csc1Cl (stereo not given)
O=C1CCC(Oc2ccc(F)cc2F)CN1c1c(Cl)cc(O)nc1Cl (stereo not given)
NC1CCC(Cl)C(N2CC(Cc3ccc(F)cc3F)CCC2=O)C1Cl (stereo not given)
O=C(Cc1ccccc1)Nc1ncc(Cl)c(N2CC(Oc3ccc(F)cc3F)CCC2=O)c1Cl (stereo not given)
O=C1OCC(Cc2ccc(F)cc2)CN1c1c(Cl)cccc1Cl (stereo not given)
O=C1CCC(Oc2cc(Cl)cc(Cl)c2)CN1c1c(Cl)csc1Cl (stereo not given)
Cc1ccc(CC2CSC(=O)N(c3c(Cl)cccc3Cl)C2)c(C)c1 (stereo not given)
O=C1CCC(Cc2ccc3ccccc3c2)CN1C1C(Cl)CCCC1Cl (stereo not given)
Cc1cc(C)cc(SC2CCC(=O)N(C3C(Cl)CCCC3Cl)C2)c1 (stereo not given)
COc1ccc(CC2CNC(=O)N(c3c(Cl)cccc3Cl)C2)cc1 (stereo not given)
CN1CC(Cc2ccc(Cl)cc2)CN(c2c(Cl)cccc2Cl)C1=O (stereo not given)
Nc1cc(Cl)c(N2CC(Sc3ccc(F)cc3F)CCC2=O)c(Cl)n1 (stereo not given)
Nc1cc(Cl)c(N2CC(Cc3ccc(F)cc3F)CSC2=O)c(Cl)c1 (stereo not given)
O=C1CCC(Cc2ccccc2Cl)CN1c1c(Cl)cccc1Cl (stereo not given)
CC(=O)Nc1cc(Cl)c(N2CC(Sc3ccc(F)cc3F)CCC2=O)c(Cl)n1 (stereo not given)
NC1CCC(Cl)C(N2CC(Oc3ccc(F)cc3F)CCC2=O)C1Cl (stereo not given)
COc1ccc(CC2CN(c3c(Cl)cccc3Cl)C(=O)CS2)cc1 (stereo not given)
Cc1nc[nH]c1CNc1cc(Cl)c(N2CC(Cc3ccccc3)CCC2=O)c(Cl)c1 (stereo not given)
COc1ccccc1CC1CCC(=O)N(C2C(Cl)CCCC2Cl)C1 (stereo not given)
Cc1cc(CN)cc(C)c1N1CC(Cc2ccc(F)cc2F)CCC1=O (stereo not given)
O=C1SCC(Cc2ccc(F)cc2)CN1c1c(Cl)cccc1Cl (stereo not given)
O=C1CCC(Cc2ccc(F)cc2F)CN1c1c(Cl)cc(NCCN2CCOCC2)cc1Cl (stereo not given)
Cc1cc(C)cc(SC2CCC(=O)N(c3c(Cl)cncc3Cl)C2)c1 (stereo not given)
NC(=O)/C=C/c1cc(Cl)c(N2CC(Cc3ccc(F)cc3F)CCC2=O)c(Cl)c1 (stereo not given)
CC(=O)Nc1ccc(Cl)c(N2CC(Cc3ccc(F)cc3F)CSC2=O)c1Cl (stereo not given)
O=C1CCC(Oc2ccc(F)cc2F)CN1c1c(Cl)cnc(O)c1Cl (stereo not given)
O=C1CCC(Sc2ccc(F)cc2F)CN1c1c(Cl)cnc(O)c1Cl (stereo not given)
OCc1ccccc1CC1CCCN(c2c(Cl)cccc2Cl)C1 (stereo not given)
O=C1[C@@H](O)C[C@@H](Cc2ccc(F)cc2F)CN1c1c(Cl)cccc1Cl
O=C1CCC(Oc2ccc(F)cc2F)CN1c1c(Cl)cc(O)cc1Cl (stereo not given)
Cc1ccc(CC2CCC(=O)N(c3c(Cl)cncc3Cl)C2)c(C)c1 (stereo not given)
CNc1ncc(Cl)c(N2CC(Sc3ccc(F)cc3F)CCC2=O)c1Cl (stereo not given)
Nc1cnc(Cl)c(N2CC(Oc3ccc(F)cc3F)CCC2=O)c1Cl (stereo not given)
N#Cc1ccccc1CC1CCC(=O)N(c2c(Cl)cccc2Cl)C1 (stereo not given)
O=C1CCC(Sc2ccc(Cl)cc2Cl)CN1c1c(Cl)cncc1Cl (stereo not given)
Cc1cc(C(=O)NCCC(=O)O)cc(C)c1N1CC(Cc2ccc(F)cc2F)CCC1=O (stereo not given)
O=C1CCC(Sc2ccccc2F)CN1c1c(Cl)cncc1Cl (stereo not given)
CCOC(=O)CNc1ccc(Cl)c(N2CC(Cc3ccc(F)cc3F)CCC2=O)c1 (stereo not given)
Cn1nc(C(C)(C)C)cc1NC(=O)OCc1ccccc1CC1CCC(=O)N(c2c(Cl)cccc2Cl)C1 (stereo not given)
O=C1SCC(Cc2ccc3ccccc3c2)CN1c1c(Cl)cccc1Cl (stereo not given)
O=C1CCC(Cc2ccc(F)cc2)CN1C1C(Cl)CCCC1Cl (stereo not given)
O=C1CCC(Cc2ccccc2)CN1C1C(Cl)CCCC1Cl (stereo not given)
O=C1SCC(Cc2cc(F)cc(F)c2)CN1c1c(Cl)cccc1Cl (stereo not given)
O=C1COC(Cc2ccc(F)cc2F)CN1c1c(Cl)cccc1Cl (stereo not given)
O=C(Cc1ccccc1)Nc1cc(Cl)c(N2CC(Cc3ccc(F)cc3F)COC2=O)c(Cl)c1 (stereo not given)
Cc1cc(C)cc(CC2CNC(=O)N(c3c(Cl)cccc3Cl)C2)c1 (stereo not given)
Nc1cc(Cl)c(N2CC(Sc3ccc(F)cc3F)CCC2=O)c(Cl)c1 (stereo not given)
O=C1CSC(Cc2ccc(F)cc2F)CN1c1c(Cl)ccc(O)c1Cl (stereo not given)
O=C1OCC(Cc2cc(Cl)cc(Cl)c2)CN1c1c(Cl)cccc1Cl (stereo not given)
O=C1OCC(Cc2ccccc2)CN1c1c(Cl)cccc1Cl (stereo not given)
Cc1ccccc1OC1CCC(=O)N(c2c(Cl)ccnc2Cl)C1 (stereo not given)
O=C1CCC(Oc2cccc3ccccc23)CN1c1c(Cl)cncc1Cl (stereo not given)
CS(=O)(=O)N1CCC(Nc2cc(Cl)c(N3CC(Cc4ccc(F)cc4F)CCC3=O)c(Cl)c2)CC1 (stereo not given)
COC(=O)/C=C/c1cc(C)c(N2CC(Cc3ccc(F)cc3F)CCC2=O)c(C)c1 (stereo not given)

Reference: the Kinase Knowledgebase extract (Sharma et al. 2016)
